Measurements as given in patent EP4741380A1, “ISOXAZOLINE COMPOUND AND USE” (priority 2024, dated 2025).
Like-named read-outs stand apart in the source and are kept apart here.

Test system: mites
Assay: Mite killing efficacy test with an in vitro model
Settings: 30 µM drug solution
Description: Mite collection: Live mites were gently picked up from a cage box with cotton swabs or small tweezers, 17-26 live mites per group.
Drug treatment and detection method: 100 µL of a drug solution with a different concentration (drug solution prepared by 3% DMSO solution + 97% water and having a target final concentration of 30 µM) was aspirated with a pipette and added to a 24-well plate for each group, ensuring full contact between the drug and the mites. The mites were separately incubated at normal temperature for 5 min, transferred from each plate to another dry 24-well plate with the top sealed, and air-dried for about 1 h. Mite actions were observed, and the number of dead mites/the total number of mites was recorded. Then, the 24-well plate containing the mites was cultured at room temperature and relatively high humidity. The number of dead mites/the total number of mites was counted separately after 1 h, 2 h, 4 h, 6 h, 8 h, 22 h, and 24 h (time points after drug addition), and mite mortality rates were calculated. The project ended 24 h after drug addition.
At a corresponding time point, a mite mortality rate greater than or equal to 90% is denoted as "+++", a mite mortality rate less than 90% and greater than or equal to 50% is denoted as "++", and a mite mortality rate less than 50% is denoted as "+".

[1] = 4 h after drug addition, read-out: Mite Mortality Rate 4 h
[2] = 24 h after drug addition, read-out: Mite Mortality Rate 24 h

For `Cc1cc(C2=NOC(c3cc(Cl)cc(C(F)(F)F)c3)(C(F)(F)F)C2)ccc1C(=O)NCC(=O)NC1(C(F)(F)F)CC1` (racemic) [Example 007, 4-(5-(3-chloro-5-(trifluoromethyl)phenyl)-5-(trifluoromethyl)-4,5-dihydroisoxazol-3-yl)-2-methy 1-N-(2-oxo-2-((1-(trifluoromethyl)cyclopropyl)amino)ethyl)benzamide], which “Mite Mortality Rate 4 h” value (4 h after drug addition) is on record?
The value was “++ (a mite mortality rate less than 90% and greater than or equal to 50% is denoted as "++")”.

And the “Mite Mortality Rate 24 h” value (24 h after drug addition)?
Its value is “+++ (a mite mortality rate greater than or equal to 90% is denoted as "+++")”.

Which mortality at 30 µM [1] does the source give for `Cc1cc(C2=NOC(c3cc(Cl)c(F)c(Cl)c3)(C(F)(F)F)C2)ccc1C(=O)NCC(=O)NC1(C(F)(F)F)CC1` (centres unmarked) [Example 001, 4-(5-(3,5-dichloro-4-fluorophenyl)-5-(trifluoromethyl)-4,5-dihydroisoxazol-3-yl)-2-methyl-N-(2-oxo-2-((1-(trifluoromethyl)cyclopropyl)amino)ethyl)benzamide] here?
The mortality at 30 µM was < 50%.

And the mortality at 30 µM [2]?
The mortality at 30 µM was > 90%.

Which results are given for `Cc1cc(C2=NOC(c3cc(Cl)cc(Cl)c3)(C(F)(F)F)C2)ccc1C(=O)NCC(=O)NC1(C(F)(F)F)COC1` (centres unmarked) [Example 002, 4-(5-(3,5-dichlorophenyl)-5-(trifluoromethyl)-4,5-dihydroisoxazol-3-yl)-2-methyl-N-(2-oxo-2-((3-(trifluoromethyl)oxetan-3-yl)amino)ethyl)benzamide]?
mortality at 30 µM [1]: < 50%; mortality at 30 µM [2]: > 90%

For `Cc1cc(C2=NOC(c3cc(Cl)c(Cl)c(Cl)c3)(C(F)(F)F)C2)ccc1C(=O)NCC(=O)N1CC(F)(CF)C1` (centres unmarked) [Example 003, N-(2-(3-fluoro-3-(fluoromethyl)azetidin-1-yl)-2-oxoethyl)-2-methyl-4-(5-(3,4,5-trichlorophenyl) -5-(trifluoromethyl)-4,5-dihydroisoxazol-3-yl)benzamide], which mortality at 30 µM [1] is on record?
The mortality at 30 µM was < 50%.

What about the mortality at 30 µM [2] of the same compound?
Its mortality at 30 µM is > 90%.

With `Cc1cc(C2=NOC(c3cc(Cl)c(Cl)c(Cl)c3)(C(F)(F)F)C2)ccc1C(=O)NCC(=O)NC1(C(F)(F)F)CC1` (centres unmarked) [Example 004, 2-methyl-N-(2-oxo-2-((1-(trifluoromethyl)cyclopropyl)amino)ethyl)-4-(5-(3,4,5-trichlorophenyl) -5-(trifluoromethyl)-4,5-dihydroisoxazol-3-yl)benzamide] as the compound, how does the mortality at 30 µM [1] read?
Its mortality at 30 µM is < 50%.

What about the mortality at 30 µM [2] of the same compound?
Its mortality at 30 µM is > 90%.

How did the mortality at 30 µM [1] turn out when `Cc1cc(C2=NOC(c3cc(Cl)c(F)c(Cl)c3)(C(F)(F)F)C2)ccc1C(=O)NCC(=O)N1CC(F)(CF)C1` (centres unmarked) [Example 005, 4-(5-(3,5-dichloro-4-fluorophenyl)-5-(trifluoromethyl)-4,5-dihydroisoxazol-3-yl)-N-(2-(3-fluoro-3-(fluoromethyl)azetidin-1-yl)-2-oxoethyl)-2-methylbenzamide] was run?
Its mortality at 30 µM is 50 to 90%.

And the mortality at 30 µM [2]?
The mortality at 30 µM was > 90%.

`Cc1cc(C2=NOC(c3cc(Cl)cc(Cl)c3)(C(F)(F)F)C2)ccc1C(=O)NCC(=O)N1CCC1C(F)(F)F` (centres unmarked) [Example 006, 4-(5-(3,5-dichlorophenyl)-5-(trifluoromethyl)-4,5-dihydroisoxazol-3-yl)-2-methyl-N-(2-oxo-2-(2-(trifluoromethyl)azetidin-1-yl)ethyl)benzamide] was tested. Which mortality at 30 µM [1] did it give?
The mortality at 30 µM was < 50%.

And the mortality at 30 µM [2]?
The mortality at 30 µM was > 90%.

Which mortality at 30 µM [1] does the source give for `Cc1cc(C2=NO[C@](c3cc(Cl)cc(C(F)(F)F)c3)(C(F)(F)F)C2)ccc1C(=O)NCC(=O)NC1(C(F)(F)F)CC1` [Example 009, (R)-4-(5-(3-chloro-5-(trifluoromethyl)phenyl)-5-(trifluoromethyl)-4,5-dihydroisoxazol-3-yl)-2-m ethyl-N-(2-oxo-2-((1-(trifluoromethyl)cyclopropyl)amino)ethyl)benzamide] here?
The mortality at 30 µM was < 50%.

What about the mortality at 30 µM [2] of the same compound?
Its mortality at 30 µM is < 50%.

How did the mortality at 30 µM [1] turn out when `Cc1cc(C2=NOC(c3cc(Cl)cc(Cl)c3)(C(F)(F)F)C2)ccc1C(=O)NCC(=O)NC1(C(F)(F)F)CC1` (centres unmarked) [Example 010, 4-(5-(3,5-dichlorophenyl)-5-(trifluoromethyl)-4,5-dihydroisoxazol-3-yl)-2-methyl-N-(2-oxo-2-((1-(trifluoromethyl)cyclopropyl)amino)ethyl)benzamide] was run?
Its mortality at 30 µM is 50 to 90%.

And the mortality at 30 µM [2]?
The mortality at 30 µM was > 90%.

For `Cc1cc(C2=NO[C@](c3cc(Cl)cc(Cl)c3)(C(F)(F)F)C2)ccc1C(=O)NCC(=O)NC1(C(F)(F)F)CC1` [Example 012, (R)-4-(5-(3,5-dichlorophenyl)-5-(trifluoromethyl)-4,5-dihydroisoxazol-3-yl)-2-methyl-N-(2-oxo-2-((1-(trifluoromethyl)cyclopropyl)amino)ethyl)benzamide], which mortality at 30 µM [1] is on record?
The mortality at 30 µM was < 50%.

What about the mortality at 30 µM [2] of the same compound?
The mortality at 30 µM was < 50%.

`Cc1cc(C2=NOC(c3cc(Cl)cc(C(F)(F)F)c3)(C(F)(F)F)C2)ccc1C(=O)NCC(=O)N1CC(F)(CF)C1` (centres unmarked) [Example 013, 4-(5-(3-chloro-5-(trifluoromethyl)phenyl)-5-(trifluoromethyl)-4,5-dihydroisoxazol-3-yl)-N-(2-(3-fluoro-3-(fluoromethyl)azetidin-1-yl)-2-oxoethyl)-2-methylbenzamide] was tested. Which mortality at 30 µM [1] did it give?
Its mortality at 30 µM is > 90%.

What about the mortality at 30 µM [2] of the same compound?
Its mortality at 30 µM is > 90%.

Which mortality at 30 µM [1] does the source give for `Cc1cc(C2=NOC(c3cc(Cl)cc(Cl)c3)(C(F)(F)F)C2)ccc1C(=O)NCC(=O)N1CC(O)(C(F)(F)F)C1` (centres unmarked) [Example 014, 4-(5-(3,5-dichlorophenyl)-5-(trifluoromethyl)-4,5-dihydroisoxazol-3-yl)-N-(2-(3-hydroxy-3-(trifluoromethyl)azetidin-1-yl)-2-oxoethyl)-2-methylbenzamide] here?
Its mortality at 30 µM is < 50%.

And the mortality at 30 µM [2]?
The mortality at 30 µM was < 50%.

With `Cc1cc(C2=NOC(c3cc(Cl)cc(Cl)c3)(C(F)(F)F)C2)ccc1C(=O)NCC1(NCC(F)(F)F)COC1` (centres unmarked) [Example 015] as the compound, how does the “Mite Mortality Rate 4 h” value (4 h after drug addition) read?
The value was “+ (a mite mortality rate less than 50% is denoted as "+")”.

And the “Mite Mortality Rate 24 h” value (24 h after drug addition)?
The value was “+ (a mite mortality rate less than 50% is denoted as "+")”.

How did the mortality at 30 µM [1] turn out when `Cc1cc(C2=NOC(c3cc(Cl)cc(Cl)c3)(C(F)(F)F)C2)ccc1C(=O)NCC(=O)N1CCCC1C(F)(F)F` (centres unmarked) [Example 016, 4-(5-(3,5-dichlorophenyl)-5-(trifluoromethyl)-4,5-dihydroisoxazol-3-yl)-2-methyl-N-(2-oxo-2-(2-(trifluoromethyl)pyrrolidin-1-yl)ethyl)benzamide] was run?
Its mortality at 30 µM is < 50%.

What about the mortality at 30 µM [2] of the same compound?
The mortality at 30 µM was < 50%.

`Cc1cc(C2=NOC(c3cc(Cl)cc(Cl)c3)(C(F)(F)F)C2)ccc1C(=O)NCC1(NCC(F)(F)F)CC1` (centres unmarked) [Example 017] was tested. Which “Mite Mortality Rate 4 h” value (4 h after drug addition) did it give?
Its value is “+ (a mite mortality rate less than 50% is denoted as "+")”.

What about the “Mite Mortality Rate 24 h” value (24 h after drug addition) of the same compound?
The value was “++ (a mite mortality rate less than 90% and greater than or equal to 50% is denoted as "++")”.

What does the source list for `Cc1cc(C2=NOC(c3cc(Cl)cc(Cl)c3)(C(F)(F)F)C2)ccc1C(=O)NCC(=O)NCC1(C(F)(F)F)CC1` (centres unmarked) [Example 018]?
Mite Mortality Rate 4 h (4 h after drug addition): + (a mite mortality rate less than 50% is denoted as "+"); Mite Mortality Rate 24 h (24 h after drug addition): ++ (a mite mortality rate less than 90% and greater than or equal to 50% is denoted as "++")

For `Cc1cc(C2=NOC(c3cc(Cl)cc(Cl)c3F)(C(F)(F)F)C2)ccc1C(=O)NCC(=O)NC1(C(F)(F)F)CC1` (centres unmarked) [Example 019, 4-(5-(3,5-dichloro-2-fluorophenyl)-5-(trifluoromethyl)-4,5-dihydroisoxazol-3-yl)-2-methyl-N-(2-oxo-2-((1-(trifluoromethyl)cyclopropyl)amino)ethyl)benzamide], which mortality at 30 µM [1] is on record?
The mortality at 30 µM was 50 to 90%.

What about the mortality at 30 µM [2] of the same compound?
The mortality at 30 µM was > 90%.

For `Cc1cc(C2=NOC(c3cc(Cl)cc(Cl)c3Cl)(C(F)(F)F)C2)ccc1C(=O)NCC(=O)NC1(C(F)(F)F)CC1` (centres unmarked) [Example 020, 2-methyl-N-(2-oxo-2-((1-(trifluoromethyl)cyclopropyl)amino)ethyl)-4-(5-(2,3,5-trichlorophenyl) -5-(trifluoromethyl)-4,5-dihydroisoxazol-3-yl)benzamide], which mortality at 30 µM [1] is on record?
Its mortality at 30 µM is < 50%.

What about the mortality at 30 µM [2] of the same compound?
The mortality at 30 µM was 50 to 90%.

With `Cc1cc(C2=NOC(c3cc(Cl)cc(Cl)c3)(C(F)(F)F)C2)ccc1C(=O)NCC(=O)N1CC(F)(C#N)C1` (centres unmarked) [Example 021, N-(2-(3-cyano-3-fluoroazetidin-1-yl)-2-oxoethyl)-4-(5-(3,5-dichlorophenyl)-5-(trifluoromethyl)-4,5-dihydroisoxazol-3-yl)-2-methylbenzamide] as the compound, how does the mortality at 30 µM [1] read?
Its mortality at 30 µM is < 50%.

What about the mortality at 30 µM [2] of the same compound?
The mortality at 30 µM was < 50%.

How did the mortality at 30 µM [1] turn out when `Cc1cc(C2=NOC(c3cc(Cl)cc(Cl)c3)(C(F)(F)F)C2)ccc1C(=O)NCC(=O)N1CC(F)(F)C1` (centres unmarked) [Example 022, 4-(5-(3,5-dichlorophenyl)-5-(trifluoromethyl)-4,5-dihydroisoxazol-3-yl)-N-(2-(3,3-difluoroazetidin-1-yl)-2-oxoethyl)-2-methylbenzamide] was run?
Its mortality at 30 µM is < 50%.

What about the mortality at 30 µM [2] of the same compound?
Its mortality at 30 µM is 50 to 90%.

For `Cc1cc(C2=NOC(c3cc(Cl)cc(Cl)c3)(C(F)(F)F)C2)ccc1C(=O)NCC(=O)N1CC(C(F)(F)F)C1` (centres unmarked) [Example 023, 4-(5-(3,5-dichlorophenyl)-5-(trifluoromethyl)-4,5-dihydroisoxazol-3-yl)-2-methyl-N-(2-oxo-2-(3-(trifluoromethyl)azetidin-1-yl)ethyl)benzamide], which mortality at 30 µM [1] is on record?
The mortality at 30 µM was < 50%.

What about the mortality at 30 µM [2] of the same compound?
The mortality at 30 µM was 50 to 90%.

For `Cc1cc(C2=NOC(c3cc(Cl)cc(Cl)c3)(C(F)(F)F)C2)ccc1C(=O)NCC(=O)NC1(C#N)CC1` (centres unmarked) [Example 024, N-(2-((1-cyanocyclopropyl)amino)-2-oxoethyl)-4-(5-(3,5-dichlorophenyl)-5-(trifluoromethyl)-4,5-dihydroisoxazol-3-yl)-2-methylbenzamide], which mortality at 30 µM [1] is on record?
The mortality at 30 µM was < 50%.

And the mortality at 30 µM [2]?
The mortality at 30 µM was > 90%.
